According to ChEMBL document CHEMBL1155401, “The development of benzimidazoles as selective rho kinase inhibitors” (Bioorg Med Chem Lett, 2010):
pIC50: −log10 of the molar value.

Assays:
[1] = Inhibition of ROCK by enzyme-coupled luciferase-kinase assay
[2] = Inhibition of PKA
[3] = Selectivity ratio of IC50 for PKA to IC50 to ROCK
Cytochrome P450 2C9 = Cytochrome P450 2C9 (Homo sapiens, UniProt P11712); experiment: Inhibition of CYP2C9; assay type: ADME
Cytochrome P450 2D6 = Cytochrome P450 2D6 (Homo sapiens, UniProt P10635); experiment: Inhibition of CYP2D6; assay type: ADME
Chain of Cytochrome P450 2D6 (P10635 whole entry): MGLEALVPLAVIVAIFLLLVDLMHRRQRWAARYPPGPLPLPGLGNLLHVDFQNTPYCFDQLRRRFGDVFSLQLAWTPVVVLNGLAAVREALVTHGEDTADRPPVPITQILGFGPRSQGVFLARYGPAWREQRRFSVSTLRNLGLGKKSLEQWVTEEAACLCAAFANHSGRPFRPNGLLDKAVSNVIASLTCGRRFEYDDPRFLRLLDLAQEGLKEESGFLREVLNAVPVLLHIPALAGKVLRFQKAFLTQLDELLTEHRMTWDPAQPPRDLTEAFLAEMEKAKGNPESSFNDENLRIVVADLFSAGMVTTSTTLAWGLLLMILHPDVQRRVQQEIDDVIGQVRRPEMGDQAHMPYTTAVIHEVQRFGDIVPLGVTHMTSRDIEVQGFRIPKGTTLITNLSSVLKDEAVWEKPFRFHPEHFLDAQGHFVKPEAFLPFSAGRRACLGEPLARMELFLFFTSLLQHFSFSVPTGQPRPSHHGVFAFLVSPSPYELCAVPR

Cytochrome P450 3A4 = Cytochrome P450 3A4 (Homo sapiens, UniProt P08684); experiment: Inhibition of CYP3A4; assay type: ADME
Chain of Cytochrome P450 3A4 (P08684 whole entry): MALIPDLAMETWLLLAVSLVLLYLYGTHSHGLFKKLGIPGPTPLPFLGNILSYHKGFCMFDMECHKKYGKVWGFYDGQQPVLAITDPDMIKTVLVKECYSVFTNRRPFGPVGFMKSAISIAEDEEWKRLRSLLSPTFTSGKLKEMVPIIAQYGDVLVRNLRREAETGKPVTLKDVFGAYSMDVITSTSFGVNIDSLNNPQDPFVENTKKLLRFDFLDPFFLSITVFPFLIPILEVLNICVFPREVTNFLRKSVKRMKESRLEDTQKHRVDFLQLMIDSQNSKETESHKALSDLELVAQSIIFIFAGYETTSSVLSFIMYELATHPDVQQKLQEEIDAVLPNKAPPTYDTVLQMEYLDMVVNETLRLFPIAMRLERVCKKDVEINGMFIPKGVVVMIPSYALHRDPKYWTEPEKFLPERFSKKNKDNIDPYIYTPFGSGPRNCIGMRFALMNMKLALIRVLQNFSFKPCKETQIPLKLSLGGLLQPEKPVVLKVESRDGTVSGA

Cytochrome P450 1A2 = target: T1, Cytochrome P450 1A2 (Homo sapiens, UniProt P05177); experiment: Inhibition of CYP1A2; assay type: ADME
T1 sequence (P05177 whole entry): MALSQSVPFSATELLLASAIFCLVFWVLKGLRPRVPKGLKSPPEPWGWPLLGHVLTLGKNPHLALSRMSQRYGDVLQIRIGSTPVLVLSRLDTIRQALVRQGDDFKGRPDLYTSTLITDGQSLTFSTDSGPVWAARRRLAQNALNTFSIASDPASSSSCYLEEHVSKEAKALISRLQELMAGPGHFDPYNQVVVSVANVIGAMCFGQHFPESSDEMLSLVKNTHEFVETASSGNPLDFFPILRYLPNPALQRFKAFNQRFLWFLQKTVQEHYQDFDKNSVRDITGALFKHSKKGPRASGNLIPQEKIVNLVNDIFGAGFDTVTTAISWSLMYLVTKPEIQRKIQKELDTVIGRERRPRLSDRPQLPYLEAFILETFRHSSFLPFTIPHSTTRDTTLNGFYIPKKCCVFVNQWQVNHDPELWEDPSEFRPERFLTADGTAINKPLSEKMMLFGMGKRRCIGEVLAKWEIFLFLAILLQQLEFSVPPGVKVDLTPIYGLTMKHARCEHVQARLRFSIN

[4] = Half life in human liver microsomes; assay type: ADME, Microsome
[5] = Clearance in rat at 2 mg/kg, po or 1 mg/kg, iv; assay type: ADME, organism-based; settings: in vivo
[6] = Volume of distribution at steady state in rat at 2 mg/kg, po or 1 mg/kg, iv; assay type: ADME, organism-based; settings: in vivo, read-out: Vdss
[7] = Half life in rat at 2 mg/kg, po or 1 mg/kg, iv; assay type: ADME, organism-based; settings: in vivo
Rattus norvegicus = experiment: AUC in rat at 2 mg/kg, po; assay type: ADME, organism-based, Plasma; design: dose 2 mg/kg, route oral; settings: in vivo
[8] = Cmax in rat at 2 mg/kg, po; assay type: ADME, organism-based; design: dose 2 mg/kg, route oral; settings: in vivo
[9] = Oral bioavailability in rat at 2 mg/kg; assay type: ADME, organism-based; settings: in vivo
[10] = Inhibition of ROCK by myosin light chain phosphorylation assay

Chain of Cytochrome P450 2C9 (P11712 whole entry): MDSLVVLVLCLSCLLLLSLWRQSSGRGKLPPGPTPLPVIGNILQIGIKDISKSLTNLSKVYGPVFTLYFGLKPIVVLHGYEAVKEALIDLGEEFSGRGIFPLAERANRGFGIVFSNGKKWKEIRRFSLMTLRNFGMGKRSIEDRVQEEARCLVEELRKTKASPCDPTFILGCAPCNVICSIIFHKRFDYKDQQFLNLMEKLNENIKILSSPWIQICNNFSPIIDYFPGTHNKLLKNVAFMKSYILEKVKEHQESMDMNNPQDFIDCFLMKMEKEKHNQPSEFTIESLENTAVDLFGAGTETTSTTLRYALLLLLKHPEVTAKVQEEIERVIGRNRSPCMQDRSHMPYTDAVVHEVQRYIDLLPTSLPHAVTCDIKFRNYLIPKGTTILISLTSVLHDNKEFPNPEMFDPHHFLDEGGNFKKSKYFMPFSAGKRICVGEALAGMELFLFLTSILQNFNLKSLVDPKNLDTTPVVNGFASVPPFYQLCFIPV

Q: With `c1ccc2c(c1)OCC(c1nc3ccc(-c4ccncc4)cc3[nH]1)O2` (stereo not drawn) as the compound, how does the pIC50 [1] read?
A: 8.12

Q: What about the pIC50 [2] of the same compound?
A: 6.45

Q: And the Ratio IC50 [3]?
A: 47

Q: What about the Activity (Cytochrome P450 2C9) of the same compound?
A: Active

Q: What about the Activity (Cytochrome P450 2D6) of the same compound?
A: Active

Q: What about the Activity (Cytochrome P450 3A4) of the same compound?
A: Active

Q: What about the Activity (Cytochrome P450 1A2) of the same compound?
A: Active

Q: What does the source list for `Nc1nccc(-c2ccc3nc(C4COc5ccc(C(=O)NCCO)cc5C4)[nH]c3c2)n1` (stereo not drawn)?
A: pIC50 [1]: 8.55; pIC50 [2]: 6.43; Ratio IC50 [3]: 132

Q: Which results are given for `Nc1nccc(-c2ccc3nc(C4COc5ccc(C(=O)NCCc6ccccc6)cc5C4)[nH]c3c2)n1` (stereo not drawn)?
A: pIC50 [1]: 8.77; pIC50 [2]: 6.15; Ratio IC50 [3]: 412

Q: With `c1ccc(CCn2c(C3COc4ccccc4O3)nc3ccc(-c4ccncc4)cc32)cc1` (stereo not drawn) as the compound, how does the pIC50 [1] read?
A: 6.17

Q: What about the pIC50 [2] of the same compound?
A: 5.06

Q: And the Ratio IC50 [3]?
A: 13

Q: And the Activity (Cytochrome P450 2C9)?
A: Active

Q: And the Activity (Cytochrome P450 2D6)?
A: Active

Q: And the Activity (Cytochrome P450 3A4)?
A: Active

Q: What about the Activity (Cytochrome P450 1A2) of the same compound?
A: Active

Q: With `FC(F)(F)c1cc2nc(C3COc4ccccc4O3)[nH]c2cc1-c1ccncc1` (stereo not drawn) as the compound, how does the pIC50 [1] read?
A: 5.53

Q: What about the pIC50 [2] of the same compound?
A: 5.51

Q: And the Ratio IC50 [3]?
A: 1

Q: And the Activity (Cytochrome P450 2C9)?
A: Active

Q: What about the Activity (Cytochrome P450 2D6) of the same compound?
A: Active

Q: And the Activity (Cytochrome P450 3A4)?
A: Active

Q: What about the Activity (Cytochrome P450 1A2) of the same compound?
A: Active

Q: With `Nc1nccc(-c2ccc3nc(C4COc5ccc(C(=O)NC6CCCCC6)cc5C4)[nH]c3c2)n1` (stereo not drawn) as the compound, how does the pIC50 [1] read?
A: 8.96

Q: And the pIC50 [2]?
A: 7.70

Q: What about the Ratio IC50 [3] of the same compound?
A: 18

Q: With `Nc1nccc(-c2ccc3nc(C4COc5ccc(C(=O)NCc6ccccc6)cc5C4)[nH]c3c2)n1` (stereo not drawn) as the compound, how does the pIC50 [1] read?
A: > 9.00

Q: And the pIC50 [2]?
A: 7.11

Q: And the Ratio IC50 [3]?
A: 78

Q: With `COc1ccc2c(c1)CC(c1nc3c(OCCCO)cc(-c4ccncc4)cc3[nH]1)CO2` (stereo not drawn) as the compound, how does the pIC50 [1] read?
A: 6.74

Q: What about the pIC50 [2] of the same compound?
A: 5.80

Q: And the Ratio IC50 [3]?
A: 9

Q: And the Activity (Cytochrome P450 2C9)?
A: Active

Q: What about the Activity (Cytochrome P450 2D6) of the same compound?
A: Active

Q: What about the Activity (Cytochrome P450 3A4) of the same compound?
A: Active

Q: What about the Activity (Cytochrome P450 1A2) of the same compound?
A: Active

Q: With `CN(C)CCCNC(=O)c1ccc2c(c1)CC(c1nc3ccc(-c4ccnc(N)n4)cc3[nH]1)CO2` (stereo not drawn) as the compound, how does the pIC50 [1] read?
A: 8.92

Q: What about the pIC50 [2] of the same compound?
A: 6.57

Q: What about the Ratio IC50 [3] of the same compound?
A: 227

Q: And the half-life [4]?
A: 1.67 h

Q: And the clearance [5]?
A: 27 mL/min/kg

Q: And the Vd [6]?
A: 4.6 L/kg

Q: And the half-life [7]?
A: 3 h

Q: And the AUC (Rattus norvegicus)?
A: 0.01 µM·h

Q: What about the Cmax [8] of the same compound?
A: 3 nM

Q: And the bioavailability [9]?
A: < 1%

Q: What about the pIC50 [10] of the same compound?
A: 5.57

Q: With `Nc1nccc(-c2ccc3nc(C4COc5ccc(C(=O)NCCc6cccnc6)cc5C4)[nH]c3c2)n1` (stereo not drawn) as the compound, how does the pIC50 [1] read?
A: 9.60

Q: What about the pIC50 [2] of the same compound?
A: 6.35

Q: What about the Ratio IC50 [3] of the same compound?
A: 1770

Q: What about the half-life [4] of the same compound?
A: 0.025 h

Q: And the clearance [5]?
A: 58 mL/min/kg

Q: What about the Vd [6] of the same compound?
A: 5.9 L/kg

Q: And the half-life [7]?
A: 3.6 h

Q: What about the AUC (Rattus norvegicus) of the same compound?
A: 0.08 µM·h

Q: What about the Cmax [8] of the same compound?
A: 5 nM

Q: What about the bioavailability [9] of the same compound?
A: 6%

Q: And the pIC50 [10]?
A: 6.60

Q: With `CN(C)CCNC(=O)c1ccc2c(c1)CC(c1nc3ccc(-c4ccnc(N)n4)cc3[nH]1)CO2` (stereo not drawn) as the compound, how does the pIC50 [1] read?
A: 8.82

Q: What about the pIC50 [2] of the same compound?
A: 6.48

Q: What about the Ratio IC50 [3] of the same compound?
A: 219

Q: With `c1ccc2c(c1)OCC(c1nc3ccc(-c4ccncc4)cc3n1C1CCOCC1)O2` (stereo not drawn) as the compound, how does the pIC50 [1] read?
A: 7.57

Q: What about the pIC50 [2] of the same compound?
A: 6.29

Q: What about the Ratio IC50 [3] of the same compound?
A: 19

Q: And the Activity (Cytochrome P450 2C9)?
A: Active

Q: And the Activity (Cytochrome P450 2D6)?
A: Active

Q: And the Activity (Cytochrome P450 3A4)?
A: Active

Q: What about the Activity (Cytochrome P450 1A2) of the same compound?
A: Active

Q: With `CN(C)C(=O)c1ccc2c(c1)CC(c1nc3ccc(-c4ccnc(N)n4)cc3[nH]1)CO2` (stereo not drawn) as the compound, how does the pIC50 [1] read?
A: 6.89

Q: And the pIC50 [2]?
A: 5.76

Q: What about the Ratio IC50 [3] of the same compound?
A: 13

Q: What does the source list for `Cc1cc(-c2ccncc2)cc2[nH]c(C3COc4ccccc4O3)nc12` (stereo not drawn)?
A: pIC50 [1]: 6.62; pIC50 [2]: 5.86; Ratio IC50 [3]: 6; Activity (Cytochrome P450 2C9): Active; Activity (Cytochrome P450 2D6): Active; Activity (Cytochrome P450 3A4): Active; Activity (Cytochrome P450 1A2): Active

Q: With `Cc1c(-c2ccncc2)cc2[nH]c(C3COc4ccccc4O3)nc2c1C` (stereo not drawn) as the compound, how does the pIC50 [1] read?
A: < 4.70

Q: What about the pIC50 [2] of the same compound?
A: < 4.70

Q: What about the Activity (Cytochrome P450 2C9) of the same compound?
A: Active

Q: And the Activity (Cytochrome P450 2D6)?
A: Active

Q: What about the Activity (Cytochrome P450 3A4) of the same compound?
A: Active

Q: And the Activity (Cytochrome P450 1A2)?
A: Active
